Laboratory results: ChEMBL document CHEMBL4038335, “Neuroactive Steroids. 2. 3α-Hydroxy-3β-methyl-21-(4-cyano-1H-pyrazol-1'-yl)-19-nor-5β-pregnan-20-one (SAGE-217): A Clinical Next Generation Neuroactive Steroid Positive Allosteric Modulator of the (γ-Aminobutyric Acid)A Receptor” (J Med Chem, 2017)
Values after ≈ are worked out from the molar mass of the structure shown.

Columns and labels:
[1] = biological target: T1, GABA-A receptor; alpha-1/beta-2/gamma-2 (Homo sapiens, UniProt P14867+P18507+P47870); assay: Positive allosteric modulation of GABAA receptor alpha1beta2gamma2 (unknown origin) expressed in mouse LTK cells assessed as potentiation of GABA-mediated increase in channel current under holding potential at -80 mV preincubated for 30 secs followed by GABA stimulation for 2 secs by automated patch clamp assay; format: cell-based
T1 sequence (P14867 whole entry): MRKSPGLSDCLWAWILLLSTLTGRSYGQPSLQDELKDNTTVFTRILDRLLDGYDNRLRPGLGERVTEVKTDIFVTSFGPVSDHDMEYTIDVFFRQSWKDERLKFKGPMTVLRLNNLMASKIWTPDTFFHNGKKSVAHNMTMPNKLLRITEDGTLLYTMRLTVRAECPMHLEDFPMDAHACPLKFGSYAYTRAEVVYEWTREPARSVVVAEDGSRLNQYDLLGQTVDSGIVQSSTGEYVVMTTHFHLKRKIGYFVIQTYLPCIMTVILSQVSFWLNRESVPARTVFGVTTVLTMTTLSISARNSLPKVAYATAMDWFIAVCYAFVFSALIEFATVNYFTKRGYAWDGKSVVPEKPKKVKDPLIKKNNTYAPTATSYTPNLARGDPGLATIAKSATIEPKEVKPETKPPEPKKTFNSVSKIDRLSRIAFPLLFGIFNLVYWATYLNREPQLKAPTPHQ
T1 sequence (P47870 whole entry): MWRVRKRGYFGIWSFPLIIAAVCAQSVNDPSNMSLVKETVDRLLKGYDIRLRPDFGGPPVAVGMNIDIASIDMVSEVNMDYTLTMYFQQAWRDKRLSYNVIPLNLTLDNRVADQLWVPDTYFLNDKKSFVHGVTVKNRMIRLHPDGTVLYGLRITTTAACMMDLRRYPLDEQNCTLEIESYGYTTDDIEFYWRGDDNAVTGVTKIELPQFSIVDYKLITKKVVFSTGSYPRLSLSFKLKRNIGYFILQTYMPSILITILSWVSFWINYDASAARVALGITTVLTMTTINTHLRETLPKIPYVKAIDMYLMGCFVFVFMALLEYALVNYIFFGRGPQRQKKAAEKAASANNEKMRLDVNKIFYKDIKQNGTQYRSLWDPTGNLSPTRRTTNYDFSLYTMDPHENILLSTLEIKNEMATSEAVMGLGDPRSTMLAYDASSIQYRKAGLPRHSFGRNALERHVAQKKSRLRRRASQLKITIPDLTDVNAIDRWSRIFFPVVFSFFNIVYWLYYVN
T1 sequence (P18507 whole entry): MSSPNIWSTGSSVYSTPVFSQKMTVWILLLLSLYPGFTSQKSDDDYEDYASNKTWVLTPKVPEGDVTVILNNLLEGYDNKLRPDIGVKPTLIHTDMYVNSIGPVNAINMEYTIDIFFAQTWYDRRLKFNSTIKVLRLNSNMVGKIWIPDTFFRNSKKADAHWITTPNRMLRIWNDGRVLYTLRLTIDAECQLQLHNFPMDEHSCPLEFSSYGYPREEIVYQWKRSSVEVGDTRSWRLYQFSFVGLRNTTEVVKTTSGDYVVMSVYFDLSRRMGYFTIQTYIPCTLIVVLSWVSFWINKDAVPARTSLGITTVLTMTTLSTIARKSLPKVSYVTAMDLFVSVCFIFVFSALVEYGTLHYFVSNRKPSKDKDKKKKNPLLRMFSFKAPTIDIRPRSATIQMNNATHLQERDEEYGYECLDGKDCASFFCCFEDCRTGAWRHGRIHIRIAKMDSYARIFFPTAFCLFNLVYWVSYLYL

[2] = biological target: GABA-A receptor; alpha-1/beta-2/gamma-2 (Homo sapiens) (UniProt P14867+P47870+P18507); assay: Positive allosteric modulation of GABAA receptor alpha1beta2gamma2 (unknown origin) expressed in mouse LTK cells assessed as potentiation of GABA-mediated increase in channel current under holding potential at -80 mV at 0.01 to 10 uM preincubated for 30 secs followed by GABA stimulation for 2 secs by automated patch clamp assay relative to GABA; format: cell-based
[3] = Displacement of [35S]TBPS from GABA-A receptor in Sprague-Dawley rat cerebral cortex cell membranes after 90 mins in presence of GABA by liquid scintillation counting
[4] = biological target: Gamma-aminobutyric acid receptor subunit alpha-4/beta3/delta (Homo sapiens, UniProt O14764+P28472+P48169); assay: Positive allosteric modulation of GABAA receptor alpha4beta3delta (unknown origin) expressed in CHO cells assessed as potentiation of GABA-mediated increase in channel current under holding potential at -80 mV preincubated for 30 secs followed by GABA stimulation for 2 secs by manual patch clamp assay; format: cell-based
Chain of Gamma-aminobutyric acid receptor subunit alpha-4/beta3/delta (P28472 whole entry): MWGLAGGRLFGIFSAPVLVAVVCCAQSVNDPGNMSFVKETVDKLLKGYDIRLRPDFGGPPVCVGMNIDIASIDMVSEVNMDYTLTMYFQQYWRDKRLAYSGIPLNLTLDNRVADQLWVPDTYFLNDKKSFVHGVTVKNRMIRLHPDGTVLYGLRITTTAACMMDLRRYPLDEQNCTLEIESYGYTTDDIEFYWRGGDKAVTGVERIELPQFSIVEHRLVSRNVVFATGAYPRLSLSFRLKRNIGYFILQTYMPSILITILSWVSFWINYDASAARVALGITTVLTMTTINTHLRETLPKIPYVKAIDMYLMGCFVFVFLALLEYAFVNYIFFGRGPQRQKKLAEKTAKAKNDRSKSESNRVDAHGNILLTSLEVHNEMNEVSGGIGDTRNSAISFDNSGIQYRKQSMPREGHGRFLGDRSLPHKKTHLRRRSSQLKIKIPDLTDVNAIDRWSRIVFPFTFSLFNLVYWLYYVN
Chain of Gamma-aminobutyric acid receptor subunit alpha-4/beta3/delta (P48169 whole entry): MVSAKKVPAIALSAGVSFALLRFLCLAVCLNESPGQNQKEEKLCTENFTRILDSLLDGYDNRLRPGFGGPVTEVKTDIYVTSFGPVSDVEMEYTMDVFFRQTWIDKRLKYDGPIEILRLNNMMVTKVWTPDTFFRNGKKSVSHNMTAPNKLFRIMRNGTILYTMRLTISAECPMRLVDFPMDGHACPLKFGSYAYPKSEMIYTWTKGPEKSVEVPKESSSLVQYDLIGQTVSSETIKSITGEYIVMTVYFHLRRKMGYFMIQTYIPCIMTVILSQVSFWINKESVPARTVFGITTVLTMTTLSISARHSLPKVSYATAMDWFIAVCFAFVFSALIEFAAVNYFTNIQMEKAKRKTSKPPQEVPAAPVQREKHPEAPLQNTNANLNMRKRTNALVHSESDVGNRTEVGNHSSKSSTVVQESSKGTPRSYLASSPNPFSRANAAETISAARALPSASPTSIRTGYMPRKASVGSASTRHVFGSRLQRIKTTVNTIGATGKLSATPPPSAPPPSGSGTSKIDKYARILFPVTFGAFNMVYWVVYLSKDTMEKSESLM
Chain of Gamma-aminobutyric acid receptor subunit alpha-4/beta3/delta (O14764 whole entry): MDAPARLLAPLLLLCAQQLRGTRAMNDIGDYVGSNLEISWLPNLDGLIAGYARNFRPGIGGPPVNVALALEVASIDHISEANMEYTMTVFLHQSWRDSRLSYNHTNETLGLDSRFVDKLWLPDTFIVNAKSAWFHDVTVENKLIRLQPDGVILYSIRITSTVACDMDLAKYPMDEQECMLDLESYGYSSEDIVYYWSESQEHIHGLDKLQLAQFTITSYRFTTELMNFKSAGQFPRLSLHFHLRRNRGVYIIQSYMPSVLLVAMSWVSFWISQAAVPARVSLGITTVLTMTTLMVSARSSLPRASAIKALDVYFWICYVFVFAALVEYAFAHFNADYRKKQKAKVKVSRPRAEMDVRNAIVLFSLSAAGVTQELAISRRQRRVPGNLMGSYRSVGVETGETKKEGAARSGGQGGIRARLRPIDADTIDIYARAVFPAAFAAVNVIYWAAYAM

[5] = biological target: GABA-A receptor alpha-4/beta-3/delta (Homo sapiens, UniProt P28472+P48169+); assay: Positive allosteric modulation of GABAA receptor alpha4beta3delta (unknown origin) expressed in CHO cells assessed as potentiation of GABA-mediated increase in channel current under holding potential at -80 mV at 0.01 to 10 uM preincubated for 30 secs followed by GABA stimulation for 2 secs by manual patch clamp assay relative to GABA; format: cell-based; conditions: 2 s
Chain of GABA-A receptor alpha-4/beta-3/delta (P28472 whole entry): as the sequence (P28472 whole entry) above
Chain of GABA-A receptor alpha-4/beta-3/delta (P48169 whole entry): as the sequence (P48169 whole entry) above
Chain of GABA-A receptor alpha-4/beta-3/delta (Q06278 whole entry, further chain): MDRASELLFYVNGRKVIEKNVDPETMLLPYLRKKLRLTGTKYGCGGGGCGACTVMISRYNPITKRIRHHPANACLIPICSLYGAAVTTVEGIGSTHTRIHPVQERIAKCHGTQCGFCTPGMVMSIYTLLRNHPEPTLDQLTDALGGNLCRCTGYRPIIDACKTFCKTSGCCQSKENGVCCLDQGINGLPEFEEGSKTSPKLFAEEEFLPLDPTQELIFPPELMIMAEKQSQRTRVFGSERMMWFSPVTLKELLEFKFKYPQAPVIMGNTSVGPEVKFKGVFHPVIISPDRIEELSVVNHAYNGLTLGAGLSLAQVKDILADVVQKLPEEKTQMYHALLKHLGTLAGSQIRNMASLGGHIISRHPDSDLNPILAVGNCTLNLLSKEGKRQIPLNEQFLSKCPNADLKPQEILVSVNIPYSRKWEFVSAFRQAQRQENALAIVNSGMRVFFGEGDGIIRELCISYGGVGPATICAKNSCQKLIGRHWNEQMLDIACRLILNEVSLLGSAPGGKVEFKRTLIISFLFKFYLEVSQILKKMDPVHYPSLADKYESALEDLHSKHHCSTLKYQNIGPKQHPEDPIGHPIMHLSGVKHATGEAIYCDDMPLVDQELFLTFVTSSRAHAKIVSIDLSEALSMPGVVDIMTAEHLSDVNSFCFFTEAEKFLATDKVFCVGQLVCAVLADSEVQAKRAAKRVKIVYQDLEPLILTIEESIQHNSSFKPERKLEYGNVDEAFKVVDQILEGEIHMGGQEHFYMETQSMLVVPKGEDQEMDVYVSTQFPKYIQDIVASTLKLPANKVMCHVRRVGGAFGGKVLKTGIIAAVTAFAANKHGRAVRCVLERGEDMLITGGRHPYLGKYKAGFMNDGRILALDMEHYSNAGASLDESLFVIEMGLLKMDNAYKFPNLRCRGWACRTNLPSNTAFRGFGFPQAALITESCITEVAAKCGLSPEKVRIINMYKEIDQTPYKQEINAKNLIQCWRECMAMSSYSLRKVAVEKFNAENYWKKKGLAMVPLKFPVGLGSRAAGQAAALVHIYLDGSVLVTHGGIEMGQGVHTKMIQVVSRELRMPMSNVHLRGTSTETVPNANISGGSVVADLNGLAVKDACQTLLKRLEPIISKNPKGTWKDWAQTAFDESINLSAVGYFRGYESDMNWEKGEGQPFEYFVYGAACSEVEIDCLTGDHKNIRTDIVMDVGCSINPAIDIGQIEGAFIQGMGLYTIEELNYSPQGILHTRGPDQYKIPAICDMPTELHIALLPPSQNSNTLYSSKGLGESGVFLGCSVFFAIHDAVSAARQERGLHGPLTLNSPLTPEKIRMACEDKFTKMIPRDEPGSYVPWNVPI

[6] = Clearance in Sprague-Dawley rat at 5 mg/kg, iv or 20 mg/kg, po measured up to 8 hrs post dose by LC/MS-MS analysis; format: ADME, organism-based; conditions: in vivo
[7] = Clearance in mouse hepatic microsomes at 10 uM preincubated for 5 mins followed by NADPH addition measured over 60 mins by HPLC-MS/MS analysis; format: ADME, Microsome; conditions: liver microsomes
[8] = Lipophilicity, logD of compound at 20 uM at pH 7.4 by HPLC/MS-MS analysis; format: physicochemical; conditions: buffer
[9] = Thermodynamic aqueous solubility of compound at 10 uM sonicated for 1 min followed by incubation for 1 hr by HPLC-MS/MS; format: physicochemical; conditions: buffer; read-out: Therm_solubility
[10] = Clearance in human hepatic microsomes at 10 uM preincubated for 5 mins followed by NADPH addition measured over 60 mins by HPLC-MS/MS analysis; format: ADME, Microsome; conditions: liver microsomes
[11] = Clearance in rat hepatic microsomes at 10 uM preincubated for 5 mins followed by NADPH addition measured over 60 mins by HPLC-MS/MS analysis; format: ADME, Microsome; conditions: liver microsomes
[12] = Oral bioavailability in Sprague-Dawley rat at 20 mg/kg measured up to 8 hrs post dose by LC/MS-MS analysis; format: ADME, organism-based; conditions: in vivo
[13] = Oral bioavailability in CD1 mouse at 20 mg/kg measured up to 8 hrs post dose by LC/MS-MS analysis; format: ADME, organism-based; conditions: in vivo
[14] = Clearance in CD1 mouse at 5 mg/kg, iv or 20 mg/kg, po measured up to 8 hrs post dose by LC/MS-MS analysis; format: ADME, organism-based; conditions: in vivo
[15] = Ratio of drug level in Sprague-Dawley rat brain to plasma at 5 mg/kg, iv measured at 30 mins post dose by LC/MS-MS analysis; format: ADME, organism-based; conditions: read-out: BPR

Row | Structure (SMILES) | EC50 [1] [nM] | Emax [2] [%] | IC50 [3] [nM] | EC50 [4] [nM] | further results
1 | Cc1ccn(CC(=O)[C@H]2CC[C@H]3[C@@H]4CC[C@@H]5C[C@](C)(O)CC[C@@H]5[C@H]4CC[C@]23C)n1 | > 3650 | > 695 | 45 | – | –
2 | C[C@@]1(O)CC[C@H]2[C@H](CC[C@@H]3[C@@H]2CC[C@]2(C)[C@@H](C(=O)Cn4ncc(C#N)n4)CC[C@@H]32)C1 | > 3000 | > 154 | 78 | – | –
3 | COC[C@@]1(O)CC[C@H]2[C@H](CC[C@@H]3[C@@H]2CC[C@]2(C)[C@@H](C(=O)Cn4cc(C#N)cn4)CC[C@@H]32)C1 | > 3000 | > 1130 | 16 | 577 | Emax [5]: 610%
4 | C[C@@]1(O)CC[C@H]2[C@H](CC[C@@H]3[C@@H]2CC[C@]2(C)[C@@H](C(=O)Cn4cc(C(F)(F)F)cn4)CC[C@@H]32)C1 | 1050 | 339 | 8 | 1600 | –
5 | C[C@@]1(O)CC[C@H]2[C@H](CC[C@@H]3[C@@H]2CC[C@]2(C)[C@@H](C(=O)Cn4cc(C#N)nn4)CC[C@@H]32)C1 | – | – | 251 | – | –
6 | Cc1cnnn1CC(=O)[C@H]1CC[C@H]2[C@@H]3CC[C@@H]4C[C@](C)(O)CC[C@@H]4[C@H]3CC[C@]12C | 1600 | 1120 | > 3000 | 2010 | –
7 | COc1cnn(CC(=O)[C@H]2CC[C@H]3[C@@H]4CC[C@@H]5C[C@](C)(O)CC[C@@H]5[C@H]4CC[C@]23C)c1 | 1760 | 434 | 28 | 2050 | Emax [5]: 750%
8 | C[C@@]1(O)CC[C@H]2[C@H](CC[C@@H]3[C@@H]2CC[C@]2(C)[C@@H](C(=O)Cn4cc([N+](=O)[O-])cn4)CC[C@@H]32)C1 | 1160 | 440 | 18 | – | –
9 | Cc1cn(CC(=O)[C@H]2CC[C@H]3[C@@H]4CC[C@@H]5C[C@](C)(O)CC[C@@H]5[C@H]4CC[C@]23C)nn1 | > 3000 | > 530 | 17 | – | –
10 | C[C@@]1(O)CC[C@H]2[C@H](CC[C@@H]3[C@@H]2CC[C@]2(C)[C@@H](C(=O)Cn4cc(C(=O)O)cn4)CC[C@@H]32)C1 | – | – | > 3000 | – | –
11 | C[C@@]1(O)CC[C@H]2[C@H](CC[C@@H]3[C@@H]2CC[C@]2(C)[C@@H](C(=O)Cn4cc(Cl)cn4)CC[C@@H]32)C1 | 1500 | 642 | 13 | 744 | –
12 | C[C@@]1(O)CC[C@H]2[C@H](CC[C@@H]3[C@@H]2CC[C@]2(C)[C@@H](C(=O)Cn4cc(C(N)=O)cn4)CC[C@@H]32)C1 | > 3000 | > 357 | 64 | – | –
13 | C[C@@]1(O)CC[C@H]2[C@H](CC[C@@H]3[C@@H]2CC[C@]2(C)[C@@H](C(=O)Cn4cccn4)CC[C@@H]32)C1 | 979 | 474 | 30 | 1240 | clearance [6]: 28.3 mL/min/kg; CLhep predicted at 10 µM [7]: 81.7 mL/min/kg; logD at 20 µM [8]: 4.6; solubility thermodynamic at 1 h, 10 µM [9]: 8 µM (≈ 3.08 µg/mL); CLhep predicted at 10 µM [10]: 5 mL/min/kg; CLhep predicted at 10 µM [11]: 41.7 mL/min/kg; bioavailability [12]: 19%; bioavailability [13]: 5%; Emax [5]: 583%; clearance [14]: 75 mL/min/kg; Kp at 0.5 h [15]: 1.1
14 | Cc1ccnn1CC(=O)[C@H]1CC[C@H]2[C@@H]3CC[C@@H]4C[C@](C)(O)CC[C@@H]4[C@H]3CC[C@]12C | > 10000 | > 469 | 80 | – | –
15 | Cc1cnn(CC(=O)[C@H]2CC[C@H]3[C@@H]4CC[C@@H]5C[C@](C)(O)CC[C@@H]5[C@H]4CC[C@]23C)c1 | 291 | 427 | 49 | 1360 | clearance [6]: 63.3 mL/min/kg; CLhep predicted at 10 µM [7]: 85 mL/min/kg; logD at 20 µM [8]: 5; solubility thermodynamic at 1 h, 10 µM [9]: 7 µM (≈ 2.79 µg/mL); CLhep predicted at 10 µM [10]: 8.33 mL/min/kg; CLhep predicted at 10 µM [11]: 50 mL/min/kg; bioavailability [12]: 9.5%; bioavailability [13]: 6%; Emax [5]: 841%; clearance [14]: 60 mL/min/kg; Kp at 0.5 h [15]: 2
16 | CC[C@@]1(O)CC[C@H]2[C@H](CC[C@@H]3[C@@H]2CC[C@]2(C)[C@@H](C(=O)Cn4cc(C#N)cn4)CC[C@@H]32)C1 | > 3000 | > 297 | 36 | – | –
